Test results reported in US8580762B2, “Substituted purine and 7-deazapurine compounds” (Epizyme, Inc., priority 2010, dated 2013).
Read-outs that look alike come from different tables or passages of the source.

Target: DOT1L(1-416) (Homo sapiens, UniProt Q8TEK3)
Assay: Determination of IC50: DOT1L(1-416) methyltransferase assay, 3H-SAM, oligonucleosome substrate, Flashplate
Assay type: biochemical
Details: read-out: DOT1L IC50
Procedure: Determination of IC50. Test compounds were serially diluted 3 fold in DMSO for 10 points and 1 μl was plated in a 384 well microtiter plate. […] 10 μl per well of substrate mix (same assay buffer with 200 nM S-[methyl-^3H]-adenosyl-L methionine, 600 nM of unlabeled […], and 20 nM oligonueleosome) was added to initiate the reaction. Reaction was incubated for 120 minutes at room temperature and quenched with 10 μl per well of 100 μM S-methyl-adenosyl-L methionine. For detection, substrate from 50 μl of reaction was immobilized on a 384 well Streptavidin coated Flashplate (Perkin Elmer) (also coated with 0.2% polyethyleneimine) and read on a Top Count scintillation counter (Perkin Elmer).

DOT1L(1-416), sequence (Q8TEK3 1-416): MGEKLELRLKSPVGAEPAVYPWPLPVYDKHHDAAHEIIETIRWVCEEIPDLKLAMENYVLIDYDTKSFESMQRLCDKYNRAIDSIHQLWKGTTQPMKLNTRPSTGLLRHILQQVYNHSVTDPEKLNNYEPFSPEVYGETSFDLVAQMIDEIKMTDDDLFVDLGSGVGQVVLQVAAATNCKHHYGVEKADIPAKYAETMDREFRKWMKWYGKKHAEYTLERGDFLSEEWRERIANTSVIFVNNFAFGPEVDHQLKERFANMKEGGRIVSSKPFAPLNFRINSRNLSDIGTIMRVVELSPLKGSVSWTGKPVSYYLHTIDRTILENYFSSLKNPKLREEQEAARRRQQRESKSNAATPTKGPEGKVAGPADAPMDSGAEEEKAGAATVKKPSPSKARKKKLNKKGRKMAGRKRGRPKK

| Structure (SMILES) | IC50 (class symbols) | IC50 |
| --- | --- | --- |
| CC(C)N(CC1CC(Cc2nc3cc(C(F)(F)F)ccc3[nH]2)C1)C[C@H]1C[C@@H](n2ccc3c(N)ncnc32)[C@H](O)[C@@H]1O (stereo partly shown) [Compound 15] | 1000 to 10000 nM |  |
| CC(C)N(C[C@@H]1C[C@@H](O)[C@H](n2ccc3c(N)ncnc32)C1)[C@H]1C[C@H](CCc2nc3cc(Cl)c(C(F)(F)F)cc3[nH]2)C1 [Compound 103, (1R,2R,4S)-2-(4-amino-7H-pyrrolo[2,3-d]pyrimidin-7-yl)-4-((((1s,3S)-3-(2-(5-chloro-6-(trifluoromethyl)-1H-benzo[d]imidazol-2-yl)ethyl)cyclobutyl) (isopropyl)amino)methyl)cyclopentanol] | 1000 to 10000 nM |  |
| CC(C)(C)c1ccc2[nH]c(CC[C@H]3C[C@H](N(C[C@H]4O[C@@H](n5ccc6c(N)ncnc65)[C@H](O)[C@@H]4O)CC(F)(F)F)C3)nc2c1 [Compound 77, (2R,3R,4S,5R)-2-(4-amino-7H-pyrrolo[2,3-d]pyrimidin-7-yl)-5-((((1s,3R)-3-(2-(5-(tert-butyl)-1H-benzo[d]imidazol-2-yl)ethyl)cyclobutyl)(2,2,2-trifluoroethyl)amino)methyl)tetrahydrofuran-3,4-diol] | 100 to 1000 nM |  |
| CN(C[C@H]1O[C@@H](n2ccc3c(N)ncnc32)[C@H](O)[C@@H]1O)C1CC(Cc2nc3cc(C(C)(C)C)ccc3[nH]2)C1 (stereo partly drawn) [Compound 6, (2R,3R,4S,5R)-2-(4-amino-7H-pyrrolo[2,3-d]pyrimidin-7-yl)-5-(((3-((5-(tert-butyl)-1H-benzo[d]imidazol-2-yl)methyl)cyclobutyl)(methyl)amino)methyl)tetrahydrofuran-3,4-diol] | < 100 nM |  |
| CC(C)N(CC1CC(Cc2nc3cc(C(C)(C)C)ccc3[nH]2)C1)C[C@H]1C[C@@H](n2ccc3c(N)ncnc32)[C@H](O)[C@@H]1O (stereo partly drawn) [Compound 22, (1R,2S,3R,5R)-3-{4-amino-7H-pyrrolo[2,3-d]pyrimidin-7-yl}-5-{[({3-[(5-tert-butyl-1H-1,3-benzodiazol-2-yl)methyl]cyclobutyl}methyl)(propan-2-yl)amino]methyl}cyclopentane-1,2-diol] | 100 to 1000 nM |  |
| CN(C[C@H]1O[C@@H](n2cnc3c(N)ncnc32)[C@H](O)[C@@H]1O)[C@H]1C[C@H](CCc2nc3cc(C4CC4)ccc3[nH]2)C1 [Compound 134, (2R,3R,4S,5R)-2-(6-amino-9H-purin-9-yl)-5-((((1s,3R)-3-(2-(5-cyclopropyl-1H-benzo[d]imidazol-2-yl)ethyl)cyclobutyl) (methyl)amino)methyl) tetrahydrofuran-3,4-diol] | < 100 nM |  |
| CC(C)(C)c1ccc2[nH]c(CCC3CC(N(CC4CC4)C[C@H]4C[C@@H](n5ccc6c(N)ncnc65)[C@H](O)[C@@H]4O)C3)nc2c1 (stereo partly drawn) [Compound 44, (1R,2S,3R,5R)-3-(4-amino-7H-pyrrolo[2,3-d]pyrimidin-7-yl)-5-(((3-(2-(5-(tert-butyl)-1H-benzo[d]imidazol-2-yl)ethyl)cyclobutyl)(cyclopropylmethyl)amino)methyl)cyclopentane-1,2-diol] | < 100 nM |  |
| CC(C)(C)c1ccc2[nH]c(CC[C@H]3C[C@H](NC[C@H]4O[C@@H](n5cnc6c(N)ncnc65)[C@H](O)[C@@H]4O)C3)nc2c1 [Compound 99, (2R,3R,4S,5R)-2-(6-amino-9H-purin-9-yl)-5-((((1s,3R)-3-(2-(5-(tert-butyl)-1H-benzo[d]imidazol-2-yl)ethyl)cyclobutyl)amino)methyl) tetrahydrofuran-3,4-diol] | < 100 nM |  |
| CN(C[C@H]1O[C@@H](n2ccc3c(N)ncnc32)[C@H](O)[C@@H]1O)[C@H]1C[C@H](CCc2nc3cc(C(C)(C)C)ccc3[nH]2)C1 [Compound 92, (2R,3R,4S,5R)-2-(4-amino-7H-pyrrolo[2,3-d]pyrimidin-7-yl)-5-((((1s,3R)-3-(2-(5-(tert-butyl)-1H-benzo[d]imidazol-2-yl)ethyl)cyclobutyl) (methyl)amino)methyl) tetrahydrofuran-3,4-diol] | < 100 nM |  |
| CC(C)N(CC1CC(Cc2nc3cc(C(F)(F)F)c(Cl)cc3[nH]2)C1)C[C@H]1C[C@@H](n2ccc3c(N)ncnc32)[C@H](O)[C@@H]1O (stereo partly drawn) [Compound 21, (1R,2S,3R,5R)-3-{4-amino-7H-pyrrolo[2,3-d]pyrimidin-7-yl}-5-({[(3-{[6-chloro-5-(trifluoromethyl)-1H-1,3-benzodiazol-2-yl]methyl}cyclobutyl)methyl](propan-2-yl)amino}methyl)cyclopentane-1,2-diol] | 1000 to 10000 nM |  |
| CN(C[C@H]1C[C@@H](n2ccc3c(N)ncnc32)[C@H](O)[C@@H]1O)C1CC(CCc2nc3cc(C(F)(F)F)ccc3[nH]2)C1 (stereo partly drawn) [Compound 13, (1R,2S,3R,5R)-3-(4-amino-7H-pyrrolo[2,3-d]pyrimidin-7-yl)-5-((methyl(3-(2-(5-(trifluoromethyl)-1H-benzo[d]imidazol-2-yl)ethyl)cyclobutyl)amino)methyl)cyclopentane-1,2-diol] | < 100 nM |  |
| CC(C)(C)c1ccc2[nH]c(CC[C@H]3C[C@@H](N(C[C@H]4C[C@@H](n5ccc6c(N)ncnc65)[C@H](O)[C@@H]4O)C4CCC4)C3)nc2c1 [Compound 46, (1R,2S,3R,5R)-3-(4-amino-7H-pyrrolo[2,3-d]pyrimidin-7-yl)-5-((((1r,3S)-3-(2-(5-(tert-butyl)-1,1-benzo[d]imidazol-2-yl)ethyl)cyclobutyl)(cyclobutyl)amino)methyl)cyclopentane-1,2-diol] | < 100 nM |  |
| CC(C)CN(C[C@H]1C[C@@H](n2ccc3c(N)ncnc32)[C@H](O)[C@@H]1O)C1CC(CCc2nc3cc(C(C)(C)C)ccc3[nH]2)C1 (stereo partly drawn) [Compound 45, (1R,2S,3R,5R)-3-(4-amino-7H-pyrrolo[2,3-d]pyrimidin-7-yl)-5-(((3-(2-(5-(tert-butyl)-1H-benzo[d]imidazol-2-yl)ethyl)cyclobutyl)(isobutyl)amino)methyl)cyclopentane-1,2-diol] | < 100 nM |  |
| CC(C)(C)c1ccc2[nH]c(CC[C@H]3C[C@@H](N(C[C@H]4O[C@@H](n5ccc6c(N)ncnc65)[C@H](O)[C@@H]4O)CC(F)(F)F)C3)nc2c1 [Compound 78, (2R,3R,4S,5R)-2-(4-amino-7H-pyrrolo[2,3-d]pyrimidin-7-yl)-5-((((1r,3S)-3-(2-(5-(tert-butyl)-1H-benzo[d]imidazol-2-yl)ethyl)cyclobutyl)(2,2,2-trifluoroethyl)amino)methyl)tetrahydrofuran-3,4-diol] | 1000 to 10000 nM |  |
| CC(C)N(C[C@H]1O[C@@H](n2ccc3c(N)ncnc32)[C@H](O)[C@@H]1O)[C@H]1C[C@@H](CCc2nc3cc(OC(F)(F)F)ccc3[nH]2)C1 [Compound 87, (2R,3R,4S,5R)-2-(4-amino-7H-pyrrolo[2,3-d]pyrimidin-7-yl)-5-((isopropyl((1r,3S)-3-(2-(5-(trifluoromethoxy)-1H-benzo[d]imidazol-2-yl)ethyl)cyclobutyl)amino)methyl)tetrahydrofuran-3,4-diol] | < 100 nM | 0.8 nM |

Now from value to compound, other results behind:

| IC50 (class symbols) | Structure (SMILES) | IC50 |
| --- | --- | --- |
| < 100 nM | CC(C)N(C[C@H]1O[C@@H](n2cnc3c(N)ncnc32)[C@H](O)[C@@H]1O)C1CC(CCc2nc3cc(C4CCC4)ccc3[nH]2)C1 (stereo partly drawn) [Compound 67, (2R,3R,4S,5R)-2-(6-amino-9H-purin-9-yl)-5-[({3-[2-(5-cyclobutyl-1H-1,3-benzodiazol-2-yl)ethyl]cyclobutyl}(propan-2-yl)amino)methyl]oxolane-3,4-diol] |  |
| < 100 nM | CN(C[C@H]1O[C@@H](n2cnc3c(N)ncnc32)[C@H](O)[C@@H]1O)[C@H]1C[C@@H](CCc2nc3cc(C4CC4)ccc3[nH]2)C1 [Compound 133, (2R,3R,4S,5R)-2-(6-amino-9H-purin-9-yl)-5-((((1r,3S)-3-(2-(5-cyclopropyl-1H-benzo[d]imidazol-2-yl)ethyl)cyclobutyl) (methyl)amino)methyl) tetrahydrofuran-3,4-diol] |  |
| < 100 nM | CN(C[C@H]1C[C@@H](n2ccc3c(N)ncnc32)[C@H](O)[C@@H]1O)[C@H]1C[C@@H](CCc2nc3cc(OC(F)(F)F)ccc3[nH]2)C1 [Compound 37, (1R,2S,3R,5R)-3-(4-amino-7,1-pyrrolo[2,3-d]pyrimidin-7-yl)-5-((methyl((1r,3S)-3-(2-(5-(trifluoromethoxy)-1H-benzo[d]imidazol-2-yl)ethyl)cyclobutyl)amino)methyl)cyclopentane-1,2-diol] |  |
| < 100 nM | COCC(C)(C)c1ccc2[nH]c(CCC3CC(N(C[C@H]4O[C@@H](n5cnc6c(N)ncnc65)[C@H](O)[C@@H]4O)C(C)C)C3)nc2c1 (stereo partly drawn) [Compound 118, (2R,3R,4S,5R)-2-(6-amino-9H-purin-9-yl)-5-((isopropyl(3-(2-(5-(1-methoxy-2-methylpropan-2-yl)-1H-benzo[d]imidazol-2-yl)ethyl)cyclobutyl)amino)methyl) tetrahydrofuran-3,4-diol] |  |
| < 100 nM | CN(C[C@H]1O[C@@H](n2cnc3c(N)ncnc32)[C@H](O)[C@@H]1O)[C@H]1C[C@H](CCc2nc3cc(C4(C#N)CC4)ccc3[nH]2)C1 [Compound 138, 1-(2-(2-((1R,3s)-3-((((2R,3S,4R,5R)-5-(6-amino-9H-purin-9-yl)-3,4-dihydroxytetrahydro-furan-2-yl)methyl)(methyl)amino)cyclobutyl)ethyl)-1H-benzo[d]imidazol-5-yl)cyclo-propanecarbonitrile] |  |
| < 100 nM | CC(C)(C)c1ccc2[nH]c(CC[C@H]3C[C@H](N(CC4CC4)C[C@H]4C[C@@H](n5ccc6c(N)ncnc65)[C@H](O)[C@@H]4O)C3)nc2c1 [Compound 54, (1R,2S,3R,5R)-3-(4-amino-7H-pyrrolo[2,3-d]pyrimidin-7-yl)-5-((((1s,3R)-3-(2-(5-(tert-butyl)-1H-benzo[d]imidazol-2-yl)ethyl)cyclobutyl)(cyclopropylmethyl)amino)methyl)cyclopentane-1,2-diol] |  |
